Experimental data reported in the NIST ThermoML archive (doi:10.1021/je049943s).
± gives the expanded uncertainty stated by the source.

How the values were obtained:
[1] = 101.33 kPa, Liquid
[2] = excess molar enthalpy (molar enthalpy of mixing); xn = mol fraction of the nth substance listed; details: 308.15 K, 101.33 kPa, Liquid

CC(O)CO (stereo unspecified) [1,2-propanediol]
Details	mass density [kg/m3]
[1], 308.15 K	1026.15 ± 0.53

OCCc1ccccc1 [2-phenylethanol]
Details	mass density [kg/m3]
[1], 308.15 K	1008.68 ± 0.51

OCCc1ccccc1 [2-phenylethanol] + CC(O)CO
[2]
Details	excess molar enthalpy [kcal/mol]
x2 = 0.0637	0.0251 ± 0.000765
x2 = 0.1198	0.0403 ± 0.001
x2 = 0.1695	0.0483 ± 0.00112
x2 = 0.2139	0.0548 ± 0.00124
x2 = 0.2858	0.0599 ± 0.00134
x2 = 0.3525	0.0608 ± 0.00134
x2 = 0.4495	0.0582 ± 0.00129
x2 = 0.5212	0.0576 ± 0.00129
x2 = 0.6201	0.0539 ± 0.00122
x2 = 0.7101	0.0509 ± 0.00117
x2 = 0.7656	0.0473 ± 0.00112
x2 = 0.8305	0.0397 ± 0.00098
x2 = 0.8672	0.0339 ± 0.000908
x2 = 0.9074	0.0266 ± 0.000789
x2 = 0.9289	0.0212 ± 0.000693
x2 = 0.9494	0.0158 ± 0.000621
x2 = 0.9751	0.00853 ± 0.000502

OCCc1ccccc1 [2-phenylethanol] + OCCO
[2]
Details	excess molar enthalpy [kcal/mol]
x2 = 0.0823	0.0254 ± 0.000765
x2 = 0.1521	0.0386 ± 0.000956
x2 = 0.212	0.0456 ± 0.00108
x2 = 0.264	0.0486 ± 0.00112
x2 = 0.3498	0.0495 ± 0.00115
x2 = 0.4177	0.0478 ± 0.00112
x2 = 0.5183	0.0467 ± 0.0011
x2 = 0.5892	0.0446 ± 0.00108
x2 = 0.6827	0.0408 ± 0.001
x2 = 0.7635	0.036 ± 0.000932
x2 = 0.8115	0.0313 ± 0.00086
x2 = 0.8659	0.0257 ± 0.000765
x2 = 0.8959	0.0214 ± 0.000693
x2 = 0.9281	0.0168 ± 0.000621
x2 = 0.9451	0.0134 ± 0.000574
x2 = 0.9627	0.00989 ± 0.000526
x2 = 0.981	0.00507 ± 0.000454

OCCc1ccccc1 [2-phenylethanol] + OCCOCCO
[2]
Details	excess molar enthalpy [kcal/mol]
x2 = 0.05	-0.0263 ± 0.000789
x2 = 0.0952	-0.0434 ± 0.00105
x2 = 0.1363	-0.0541 ± 0.00122
x2 = 0.1738	-0.0613 ± 0.00136
x2 = 0.2399	-0.0675 ± 0.00146
x2 = 0.2961	-0.0721 ± 0.00153
x2 = 0.3869	-0.0735 ± 0.00155
x2 = 0.4569	-0.0727 ± 0.00155
x2 = 0.5579	-0.0712 ± 0.00153
x2 = 0.6544	-0.0684 ± 0.00148
x2 = 0.7163	-0.0652 ± 0.00141
x2 = 0.7911	-0.0577 ± 0.00129
x2 = 0.8347	-0.0503 ± 0.00117
x2 = 0.8834	-0.0401 ± 0.00098
x2 = 0.9099	-0.0355 ± 0.000932
x2 = 0.9381	-0.0248 ± 0.000765
x2 = 0.968	-0.0131 ± 0.000574

OCCc1ccccc1 [2-phenylethanol] + OCCOCCOCCO
[2]
Details	excess molar enthalpy [kcal/mol]
x2 = 0.036	-0.0244 ± 0.000741
x2 = 0.0695	-0.0421 ± 0.00103
x2 = 0.1008	-0.0542 ± 0.00122
x2 = 0.13	-0.0622 ± 0.00136
x2 = 0.1832	-0.0713 ± 0.00153
x2 = 0.2296	-0.0755 ± 0.0016
x2 = 0.3096	-0.079 ± 0.00165
x2 = 0.3741	-0.0801 ± 0.00167
x2 = 0.4728	-0.0805 ± 0.00167
x2 = 0.5737	-0.0778 ± 0.00163
x2 = 0.6421	-0.0755 ± 0.0016
x2 = 0.7346	-0.0676 ± 0.00146
x2 = 0.782	-0.06 ± 0.00134
x2 = 0.8433	-0.0473 ± 0.00112
x2 = 0.8777	-0.0396 ± 0.00098
x2 = 0.915	-0.0282 ± 0.000813
x2 = 0.9556	-0.0151 ± 0.000598

OCCc1ccccc1 [2-phenylethanol] + OCCOCCOCCOCCO
[2]
Details	excess molar enthalpy [kcal/mol]
x2 = 0.0281	-0.0289 ± 0.000813
x2 = 0.0546	-0.0488 ± 0.00115
x2 = 0.0797	-0.0614 ± 0.00136
x2 = 0.1036	-0.0687 ± 0.00148
x2 = 0.1478	-0.0782 ± 0.00165
x2 = 0.1878	-0.0817 ± 0.0017
x2 = 0.2575	-0.0832 ± 0.00172
x2 = 0.3161	-0.0835 ± 0.00174
x2 = 0.4095	-0.0859 ± 0.00177
x2 = 0.5099	-0.0878 ± 0.00182
x2 = 0.5811	-0.0845 ± 0.00174
x2 = 0.6754	-0.08 ± 0.00167
x2 = 0.7351	-0.0724 ± 0.00155
x2 = 0.8063	-0.0606 ± 0.00134
x2 = 0.8473	-0.0507 ± 0.00117
x2 = 0.8928	-0.042 ± 0.00103
x2 = 0.9433	-0.0258 ± 0.000765

OCCOCCO [diethylene glycol]
[1]
Details	mass density [kg/m3]
298.15 K	1112.38 ± 0.58
308.15 K	1105.88 ± 0.58

OCCOCCOCCO [triethylene glycol]
[1]
Details	mass density [kg/m3]
298.15 K	1119.78 ± 0.59
308.15 K	1112.61 ± 0.58
